According to patent US12539326B2, “Methods for treating Alzheimer's disease using semaglutide” (Novo Nordisk A/S, priority 2019, dated 2026):

How the values were obtained:
SAMP8 mice [1] = assay: Y-maze test (short-term memory) in SAMP8 mice; assay type: in vivo, mouse; details: SAMP8 mice at 16 weeks of age; 30 nmol/kg s.c. once a day; mean, SEM 1.6%; vehicle 42.8%; p<0.0001
Description: Here, SAMP8 mice were utilized to characterize the impact of semaglutide treatment on memory deficits and cognitive decline. Two behavioural tests commonly used to assess cognitive deficits in rodents were employed to assay effects on short-term memory (Y-maze test) and long-term memory (step-through passive avoidance test). The Y-maze is test of short-term memory, assessing spatial working memory and exploratory behaviour by measuring spontaneous alternations, which is the frequency of entering a new arm of the maze rather than returning to one that was previously visited (described in methods). The step-through passive avoidance test measures associative long-term memory by assessing the learning of an association of an aversive stimulus to a particular context (described in methods). SAMP8 mice have measurable deficits in both tests as they age. […]
Testing in the Y-maze was performed at 8 weeks of age and 16 weeks of age, at approximately 15 and 71 days following treatment initiation respectively. […] The series of arm entries including possible returns into the same arm was monitored and alternation was defined as entries into all three arms on consecutive occasions. The number of maximum alternations was therefore the total number of arm entries minus two and the percentage of alternation was be calculated as (actual alternations/maximum alternations)×100.

[2] = test system: Patients with type 2 diabetes at high risk for or with established cardiovascular disease; assay: Dementia in pooled double-blind RCTs (LEADER, SUSTAIN-6, PIONEER 6), GLP-1 receptor agonist versus placebo; assay type: in vivo, human; details: each RCT, active arm vs. placebo; for Dementia SMQ GLP-1 Receptor Agonists no. of events: median follow-up 3.8 years (LEADER), 2.1 years (SUSTAIN-6), 1.3 years (PIONEER 6)
Protocol: Exposure to GLP-1 receptor agonist and subsequent diagnosis of dementia was assessed in data sources with long term treatment exposure including three pooled double-blind randomized controlled trials (RCTs) and a nationwide cohort of patients with diabetes. This was done with the aim of investigating whether use of GLP-1 receptor agonists reduces the onset of dementia in patients with diabetes.
A triangulation approach integrating study designs and data sources with different key sources of potential bias was employed to obtain a more reliable answer. First, data was pooled from three large RCTs with GLP-1 receptor agonists; liraglutide (LEADER; 9,340 patients), subcutaneous semaglutide (SUSTAIN-6; 3,297 patients), and oral semaglutide (PIONEER 6; 3,183 patients). All three trials were multicenter, double-blind, placebo-controlled cardiovascular outcomes trials. Patients with type 2 diabetes at high risk for or with established cardiovascular disease were randomly assigned in a 1:1 ratio, to receive placebo or liraglutide (LEADER), or semaglutide (SUSTAIN-6; PIONEER 6) in addition to standard of care. In these trials, the treatment for diabetes (excluding GLP-1 receptor agonists, dipeptidyl peptidase-4 inhibitors (DPP4 inhibitors), and pramlintide) was adjusted or added in both arms, at the investigator's discretion, as previously described. The formulation tested in LEADER was an aqueous composition comprising liraglutide, disodium phosphate dihydrate, propylene glycol, and phenol at pH 8.15. The formulation tested in SUSTAIN-6 was an aqueous composition comprising semaglutide, disodium phosphate dihydrate, propylene glycol, and phenol at pH 7.4. The formulation tested in PIONEER was a tablet comprising semaglutide and SNAC. […]
For the pooled RCTs, an intention-to-treat analysis was performed using Cox regression with treatment assignment as the only explanatory variable to determine the hazard ratio for developing dementia with GLP-1 receptor agonists versus placebo. […] The incidence of dementia with death as competing risk was calculated using the Aalen-Johansen estimator.

[3] = test system: microglial inflammatory marker Iba1 in the hippocampus; assay: LPS-induced neuroinflammation in mice, Iba1 immunohistochemistry of the hippocampus; assay type: in vivo, mouse; details: C57BL/6 mice, Day 28, LPS+semaglutide 30 nmol/kg s.c. once per day; mean, SEM 0.49%; LPS+vehicle 12.17%; p<0.01
Description: LPS-induced neuroinflammation is used as a non-genetic model of Alzheimer's disease in rodents. LPS is an endotoxin from gram-negative bacteria that provides a persistent inflammatory stimulus activating brain immune cells (neuroimmune cells). Microglia are a brain immune cell type activated by LPS, and the degree of neuroinflammation can be assessed by the area of microglia in brain tissue as measured by the microglia-specific marker ionized calcium binding adaptor molecule 1 (Iba1).
Here, LPS-induced neuroinflammation in mice was used to assess the impact of semaglutide on attenuating brain inflammation in the hippocampus, a brain region involved in memory and learning which is deteriorated in Alzheimer's Disease.
The experiment was carried out using C57BL/6 mice at 8-10 weeks of age. […]
Immediately after termination, whole brains were collected for immunohistochemical (IHC) analyses of neuroinflammation markers. […] The primary antibody was detected using a linker secondary antibody followed by amplification using a polymeric HRP-linker antibody conjugate. […]
Quantitative assessment of Iba1 signal was performed to measure the area of microglia in the hippocampus of the tissue section. […] The quantitative estimates of IHC-positive staining were calculated as an area fraction (AF) of the total tissue area where: […]

SAMP8 mice [4] = assay: Step-through passive avoidance test (long-term memory) in SAMP8 mice; assay type: in vivo, mouse; details: SAMP8 mice at 18 weeks of age, retention test, 30 nmol/kg s.c. once a day, mean
Description: Here, SAMP8 mice were utilized to characterize the impact of semaglutide treatment on memory deficits and cognitive decline. Two behavioural tests commonly used to assess cognitive deficits in rodents were employed to assay effects on short-term memory (Y-maze test) and long-term memory (step-through passive avoidance test). The Y-maze is test of short-term memory, assessing spatial working memory and exploratory behaviour by measuring spontaneous alternations, which is the frequency of entering a new arm of the maze rather than returning to one that was previously visited (described in methods). The step-through passive avoidance test measures associative long-term memory by assessing the learning of an association of an aversive stimulus to a particular context (described in methods). SAMP8 mice have measurable deficits in both tests as they age.
The experiment was carried out using SAMP8 mice with the following treatment groups: SAMP8 vehicle treated (n=24) and SAMP8 semaglutide (30 nmol/kg) treated (n=11). […]
The step through passive avoidance performance was performed at 18 weeks of age. […] The step-through latency was recorded up to 300 s, defined as the time it took the mouse to enter the darkened compartment during the retention test. Escape latency was as recorded, defined as the time in the retention test to escape the darkened chamber following the application of a footshock.

N-epsilon26-[2-(2-{2-[2-(2-{2-[(S)-4-Carboxy-4-(17-carboxyheptadecanoylamino)butyrylamino] ethoxy}ethoxy)acetylamino]ethoxy} ethoxy)acetyl][Aib8,Arg34]GLP-1-(7-37) [semaglutide]
percentage alternation behaviour in the Y-maze (SAMP8 mice [1]): 79.1%
Dementia SMQ GLP-1 Receptor Agonists no. of events ([2]; listed as Semaglutide (oral)): 0
Dementia SMQ GLP-1 Receptor Agonists no. of events ([2]; listed as Semaglutide (s.c)): 3
Dementia SMQ GLP-1 Receptor Agonists rate ([2]; unit not printed in table (b13 gives pooled rates per 1000 patient-years)): 0.88
hippocampal Iba1 area (area fraction) [3]: 8.53%
escape latency (SAMP8 mice [4]; SEM 3.0 seconds, vehicle 88.8 seconds, p=0.01): 19.0 s
step-through latency (SAMP8 mice [4]; SEM 14.5 seconds, vehicle 109.8 seconds, p<0.0001): 260.5 s
